Assay results taken from ChEMBL document CHEMBL1145572, “Analogues of N-hydroxy-N'-phenylthiourea and N-hydroxy-N'-phenylurea as inhibitors of tyrosinase and melanin formation” (Bioorg Med Chem Lett, 2008).
The source made the active and inactive calls. The calls are words filed in the database; no cut-off is given here.

Experiments:
[1] = test system: B16; test: Inhibition of melanin production in mouse B16 cells at 100 uM; assay type: functional
[2] = test system: B16; test: Cytotoxicity against mouse B16 cells at 100 uM; assay type: functional, cell-based
[3] = target: T1, Tyrosinase (Agaricus bisporus, UniProt O42713)
T1 sequence (O42713 whole entry): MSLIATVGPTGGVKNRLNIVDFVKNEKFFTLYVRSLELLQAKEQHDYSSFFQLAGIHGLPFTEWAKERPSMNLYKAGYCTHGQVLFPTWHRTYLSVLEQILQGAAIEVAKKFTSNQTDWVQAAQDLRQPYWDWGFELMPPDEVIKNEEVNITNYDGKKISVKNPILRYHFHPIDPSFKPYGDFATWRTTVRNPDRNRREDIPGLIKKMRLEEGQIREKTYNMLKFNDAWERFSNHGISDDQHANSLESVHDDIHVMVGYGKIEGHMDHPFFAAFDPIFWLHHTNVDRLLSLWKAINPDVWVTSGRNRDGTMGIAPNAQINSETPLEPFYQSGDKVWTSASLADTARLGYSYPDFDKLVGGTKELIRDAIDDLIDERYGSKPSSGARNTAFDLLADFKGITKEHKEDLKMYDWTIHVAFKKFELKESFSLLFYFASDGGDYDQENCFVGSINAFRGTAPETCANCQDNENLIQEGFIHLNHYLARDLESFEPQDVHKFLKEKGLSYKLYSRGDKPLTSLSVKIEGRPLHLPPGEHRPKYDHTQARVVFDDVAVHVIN
Description: Inhibition of mushroom tyrosinase

[4] = test system: B16; test: Inhibition of melanin production in mouse B16 cells at 50 uM; assay type: functional

O=C(NO)Nc1ccc(Br)cc1
inhibition at 100 µM [1]: 75.5%
Activity [2]: inactive
IC50 [3]: 2.7 µM

O=C(NO)Nc1ccc(NC(=O)NO)cc1
inhibition at 100 µM [1]: 66%
Activity [2]: inactive
IC50 [3]: 27 µM

CONC(=S)Nc1ccc2ccccc2c1
inhibition at 100 µM [1]: 85%
Activity [2]: inactive
IC50 [3]: 26 µM

Oc1ccc(O)cc1 [HYDROQUINONE]
IC50 [3]: 37 µM

CONC(=O)Nc1ccccc1
Activity [1]: inactive
Activity [2]: inactive
IC50 [3]: > 1000 µM

CC(=O)N(O)C(=O)Nc1ccccc1
Activity [2]: inactive
IC50 [3]: 170 µM

COc1ccc(NC(=O)NO)cc1
Activity [1]: inactive
Activity [2]: inactive
IC50 [3]: 32 µM

CONC(=S)Nc1ccc([N+](=O)[O-])cc1
inhibition at 50 µM [4]: 75.5%
Activity [2]: inactive
IC50 [3]: > 1000 µM

ONC(=S)Nc1ccccc1
Activity [1]: inactive
Activity [2]: inactive
IC50 [3]: > 1000 µM

O=C(NO)Nc1ccccc1
inhibition at 100 µM [1]: 78%
Activity [2]: inactive
IC50 [3]: 0.29 µM

CCCCOc1ccc(NC(=O)NO)cc1
Activity [1]: inactive
Activity [2]: inactive
IC50 [3]: > 1000 µM

CN(C(=O)NO)c1ccccc1
Activity [2]: inactive
IC50 [3]: 16 µM

CN(O)C(=O)Nc1ccc(Br)cc1
Activity [1]: inactive
Activity [2]: inactive
IC50 [3]: > 1000 µM

COc1ccc(NC(=O)NO)c(OC)c1
Activity [1]: inactive
Activity [2]: inactive
IC50 [3]: > 1000 µM

CONC(=O)N(C)c1ccccc1
Activity [2]: inactive
IC50 [3]: > 1000 µM

O=C(NO)Nc1ccc(O)cc1
inhibition at 100 µM [1]: 19%
Activity [2]: inactive
IC50 [3]: 41 µM

NC(=O)Nc1ccccc1
Activity [1]: inactive
IC50 [3]: > 1000 µM

OC[C@H]1O[C@@H](Oc2ccc(O)cc2)[C@H](O)[C@@H](O)[C@@H]1O [ARBUTIN]
inhibition at 100 µM [1]: 43.8%

CC(C)(C)[Si](C)(C)ONC(=O)Nc1ccccc1
Activity [1]: inactive
Activity [2]: inactive
IC50 [3]: 70 µM

O=C(NO)Nc1ccc(OCc2ccccc2)cc1
Activity [1]: inactive
Activity [2]: inactive
IC50 [3]: 6.3 µM

CN(O)C(=O)Nc1ccccc1
Activity [1]: inactive
Activity [2]: inactive
IC50 [3]: > 1000 µM

O=C(NO)Nc1ccc([N+](=O)[O-])cc1
inhibition at 100 µM [1]: 86%
Activity [2]: inactive
IC50 [3]: 2.6 µM

O=C(NO)Nc1ccc(C(F)(F)F)cc1
inhibition at 100 µM [1]: 79.3%
Activity [2]: inactive
IC50 [3]: 4.3 µM

CN(O)C(=O)Nc1ccc([N+](=O)[O-])cc1
inhibition at 100 µM [1]: 82%
Activity [2]: inactive
IC50 [3]: 770 µM

CN(O)C(=O)N(C)c1ccccc1
Activity [2]: inactive
IC50 [3]: > 1000 µM
